Assay results reported in patent US9145346B1, “Process for 2,2,4,4-tetramethylcyclobutane-1,3-diol crystallization” (Eastman Chemical Company, priority 2014, dated 2015).

Test: Solubility (saturated concentration) of cis-TMCD and trans-TMCD in various solvents, by gas chromatography
Format: physicochemical
Description: All concentrations were measured by gas chromatography. Water concentration was measured by Karl Fischer titrations.
The solubility of cis-TMCD and trans-TMCD in various solvents was determined by charging cis-TMCD, trans-TMCD, and the solvent or solvents of interest into a 120 ml jacketed glass vessel. The vessel was equipped with a stir bar in order to provide mixing and the jacket was used to control the temperature of the vessel contents. The vessel was equipped with charging and sampling ports on top of the vessel.
The slurry was allowed to stand for a time sufficient for the solids to saturate the solvent at the desired temperature. At that time, a sample of the solution was withdrawn from the cell using a fritted pipette so as to remove only the liquid phase. The sample was analyzed for cis-TMCD and trans-TMCD isomer content. These values represent the saturated concentration of each isomer at the sampling temperature.
After this, the cell contents were heated to the next desired temperature and the contents were held for another time interval sufficient to allow the slurry to equilibrate. A sample was then taken of the solution and analyzed. Following this procedure, solubility data was collected up to the final desired temperature.
The reported solubility of each isomer at a given temperature for a given solvent is expressed as a weight % relative to the saturated concentration of the isomer at the highest temperature reported for a given solvent.

CC1(C)[C@H](O)C(C)(C)[C@@H]1O [cis-TMCD, cis-2,2,4,4-tetramethylcyclobutane-1,3-diol]
Relative solubility (2-Ethylhexanol, 0.7° C., relative to 89.8° C.): 10% relative wt % | Relative solubility (2-Ethylhexanol, 12.5° C., relative to 89.8° C.): 16% relative wt % | Relative solubility (2-Ethylhexanol, 24.7° C., relative to 89.8° C.): 21% relative wt % | Relative solubility (2-Ethylhexanol, 40.0° C., relative to 89.8° C.): 29% relative wt % | Relative solubility (2-Ethylhexanol, 49.9° C., relative to 89.8° C.): 37% relative wt % | Relative solubility (2-Ethylhexanol, 60.2° C., relative to 89.8° C.): 46% relative wt % | Relative solubility (2-Ethylhexanol, 69.3° C., relative to 89.8° C.): 58% relative wt % | Relative solubility (2-Ethylhexanol, 79.3° C., relative to 89.8° C.): 76% relative wt % | Relative solubility (2-Ethylhexanol, 89.8° C., relative to 89.8° C.): 100% relative wt % | Relative solubility (2-Ethylhexyl Acetate, 5.9° C., relative to 79.4° C.): 5% relative wt % | Relative solubility (2-Ethylhexyl Acetate, 15.5° C., relative to 79.4° C.): 8% relative wt % | Relative solubility (2-Ethylhexyl Acetate, 25.1° C., relative to 79.4° C.): 12% relative wt % | Relative solubility (2-Ethylhexyl Acetate, 40.5° C., relative to 79.4° C.): 22% relative wt % | Relative solubility (2-Ethylhexyl Acetate, 49.8° C., relative to 79.4° C.): 31% relative wt % | Relative solubility (2-Ethylhexyl Acetate, 49.9° C., relative to 79.4° C.): 32% relative wt % | Relative solubility (2-Ethylhexyl Acetate, 60.5° C., relative to 79.4° C.): 47% relative wt % | Relative solubility (2-Ethylhexyl Acetate, 70.3° C., relative to 79.4° C.): 74% relative wt % | Relative solubility (2-Ethylhexyl Acetate, 79.4° C., relative to 79.4° C.): 100% relative wt % | Relative solubility (2-Ethylhexyl Acetate, −5.0° C., relative to 79.4° C.): 4% relative wt % | Relative solubility (CHDM, 69.0° C., relative to 106.9° C.): 27% relative wt % | Relative solubility (CHDM, 79.2° C., relative to 106.9° C.): 58% relative wt % | Relative solubility (CHDM, 88.9° C., relative to 106.9° C.): 69% relative wt % | Relative solubility (CHDM, 95.6° C., relative to 106.9° C.): 85% relative wt % | Relative solubility (CHDM, 106.9° C., relative to 106.9° C.): 100% relative wt % | Relative solubility (Dimethyl Carbonate, 6.2° C., relative to 70.1° C.): 7% relative wt % | Relative solubility (Dimethyl Carbonate, 16.3° C., relative to 70.1° C.): 9% relative wt % | Relative solubility (Dimethyl Carbonate, 25.7° C., relative to 70.1° C.): 14% relative wt % | Relative solubility (Dimethyl Carbonate, 40.5° C., relative to 70.1° C.): 28% relative wt % | Relative solubility (Dimethyl Carbonate, 54.7° C., relative to 70.1° C.): 55% relative wt % | Relative solubility (Dimethyl Carbonate, 70.1° C., relative to 70.1° C.): 100% relative wt % | Relative solubility (Ethanol, 5.3° C., relative to 60.3° C.): 47% relative wt % | Relative solubility (Ethanol, 14.3° C., relative to 60.3° C.): 52% relative wt % | Relative solubility (Ethanol, 25.5° C., relative to 60.3° C.): 68% relative wt % | Relative solubility (Ethanol, 39.9° C., relative to 60.3° C.): 81% relative wt % | Relative solubility (Ethanol, 50.1° C., relative to 60.3° C.): 88% relative wt % | Relative solubility (Ethanol, 60.3° C., relative to 60.3° C.): 100% relative wt % | Relative solubility (Ethyl Acetate, 4.2° C., relative to 54.9° C.): 15% relative wt % | Relative solubility (Ethyl Acetate, 15.0° C., relative to 54.9° C.): 24% relative wt % | Relative solubility (Ethyl Acetate, 26.2° C., relative to 54.9° C.): 37% relative wt % | Relative solubility (Ethyl Acetate, 40.5° C., relative to 54.9° C.): 62% relative wt % | Relative solubility (Ethyl Acetate, 54.9° C., relative to 54.9° C.): 100% relative wt % | Relative solubility (Ethyl Acetate, −5.1° C., relative to 54.9° C.): 12% relative wt % | Relative solubility (Ethylene Glycol, 26.5° C., relative to 91.4° C.): 25% relative wt % | Relative solubility (Ethylene Glycol, 36.2° C., relative to 91.4° C.): 32% relative wt % | Relative solubility (Ethylene Glycol, 48.5° C., relative to 91.4° C.): 42% relative wt % | Relative solubility (Ethylene Glycol, 61.5° C., relative to 91.4° C.): 57% relative wt % | Relative solubility (Ethylene Glycol, 72.1° C., relative to 91.4° C.): 68% relative wt % | Relative solubility (Ethylene Glycol, 82.2° C., relative to 91.4° C.): 87% relative wt % | Relative solubility (Methanol, 16.9° C., relative to 41.3° C.): 86% relative wt % | Relative solubility (Methanol, 25.6° C., relative to 41.3° C.): 91% relative wt % | Relative solubility (Methanol, 41.3° C., relative to 41.3° C.): 100% relative wt % | Relative solubility (Methanol, −2.5° C., relative to 41.3° C.): 77% relative wt % | Relative solubility (Methyl Acetate, 5.9° C., relative to 49.8° C.): 15% relative wt % | Relative solubility (Methyl Acetate, 15.5° C., relative to 49.8° C.): 22% relative wt % | Relative solubility (Methyl Acetate, 25.1° C., relative to 49.8° C.): 33% relative wt % | Relative solubility (Methyl Acetate, 40.5° C., relative to 49.8° C.): 59% relative wt % | Relative solubility (Methyl Acetate, 49.8° C., relative to 49.8° C.): 100% relative wt % | Relative solubility (Methyl Acetate, −5.0° C., relative to 49.8° C.): 9% relative wt % | Relative solubility (Methyl i-Butyl Carbinol, 9.4° C., relative to 81.9° C.): 20% relative wt % | Relative solubility (Methyl i-Butyl Carbinol, 20.4° C., relative to 81.9° C.): 25% relative wt % | Relative solubility (Methyl i-Butyl Carbinol, 31.1° C., relative to 81.9° C.): 31% relative wt % | Relative solubility (Methyl i-Butyl Carbinol, 40.0° C., relative to 81.9° C.): 40% relative wt % | Relative solubility (Methyl i-Butyl Carbinol, 49.5° C., relative to 81.9° C.): 49% relative wt % | Relative solubility (Methyl i-Butyl Carbinol, 60.0° C., relative to 81.9° C.): 62% relative wt % | Relative solubility (Methyl i-Butyl Carbinol, 69.5° C., relative to 81.9° C.): 78% relative wt % | Relative solubility (Methyl i-Butyl Carbinol, 81.9° C., relative to 81.9° C.): 100% relative wt % | Relative solubility (i-Butyl Acetate, 4.8° C., relative to 90.1° C.): 5% relative wt % | Relative solubility (i-Butyl Acetate, 16.9° C., relative to 90.1° C.): 8% relative wt % | Relative solubility (i-Butyl Acetate, 25.6° C., relative to 90.1° C.): 11% relative wt % | Relative solubility (i-Butyl Acetate, 41.3° C., relative to 90.1° C.): 19% relative wt % | Relative solubility (i-Butyl Acetate, 56.2° C., relative to 90.1° C.): 32% relative wt % | Relative solubility (i-Butyl Acetate, 70.2° C., relative to 90.1° C.): 52% relative wt % | Relative solubility (i-Butyl Acetate, 90.1° C., relative to 90.1° C.): 100% relative wt % | Relative solubility (i-Butyl Acetate, −2.5° C., relative to 90.1° C.): 5% relative wt % | Relative solubility (n-Butanol, 5.9° C., relative to 60.5° C.): 46% relative wt % | Relative solubility (n-Butanol, 15.5° C., relative to 60.5° C.): 51% relative wt % | Relative solubility (n-Butanol, 25.1° C., relative to 60.5° C.): 59% relative wt % | Relative solubility (n-Butanol, 40.5° C., relative to 60.5° C.): 73% relative wt % | Relative solubility (n-Butanol, 49.8° C., relative to 60.5° C.): 86% relative wt % | Relative solubility (n-Butanol, 49.9° C., relative to 60.5° C.): 86% relative wt % | Relative solubility (n-Butanol, 60.5° C., relative to 60.5° C.): 100% relative wt % | Relative solubility (n-Butanol, −5.0° C., relative to 60.5° C.): 41% relative wt % | Relative solubility (n-Butyl Propionate, 6.5° C., relative to 91.9° C.): 4% relative wt % | Relative solubility (n-Butyl Propionate, 16.8° C., relative to 91.9° C.): 7% relative wt % | Relative solubility (n-Butyl Propionate, 27.7° C., relative to 91.9° C.): 10% relative wt % | Relative solubility (n-Butyl Propionate, 41.7° C. (sample 4), relative to 91.9° C.): 17% relative wt % | Relative solubility (n-Butyl Propionate, 41.7° C. (sample 5), relative to 91.9° C.): 18% relative wt % | Relative solubility (n-Butyl Propionate, 52.0° C., relative to 91.9° C.): 27% relative wt % | Relative solubility (n-Butyl Propionate, 61.5° C., relative to 91.9° C.): 37% relative wt % | Relative solubility (n-Butyl Propionate, 69.1° C., relative to 91.9° C.): 50% relative wt % | Relative solubility (n-Butyl Propionate, 80.7° C., relative to 91.9° C.): 74% relative wt % | Relative solubility (n-Butyl Propionate, 91.9° C., relative to 91.9° C.): 100% relative wt % | Relative solubility (n-Propyl Propionate, 7.0° C., relative to 72.2° C.): 10% relative wt % | Relative solubility (n-Propyl Propionate, 17.1° C., relative to 72.2° C.): 14% relative wt % | Relative solubility (n-Propyl Propionate, 26.7° C., relative to 72.2° C.): 21% relative wt % | Relative solubility (n-Propyl Propionate, 37.4° C., relative to 72.2° C.): 30% relative wt % | Relative solubility (n-Propyl Propionate, 42.4° C., relative to 72.2° C.): 34% relative wt % | Relative solubility (n-Propyl Propionate, 52.2° C., relative to 72.2° C.): 50% relative wt % | Relative solubility (n-Propyl Propionate, 62.9° C., relative to 72.2° C.): 72% relative wt % | Relative solubility (n-Propyl Propionate, 72.2° C., relative to 72.2° C.): 100% relative wt %
